Laboratory results: US20040142958A1, “Combination therapy for the treatment of pain” (Neurogen Corporation, priority 2002, published 2004)

Experiments:
rats [1] = assay: Carrageenan-induced thermal hyperalgesia, VR1 antagonist and morphine in combination; assay type: in vivo, rat
Description: Briefly, a constant radiant heat source is applied the animals' plantar surface of either hind paw. The time to withdrawal (ie., the amount of time that heat is applied before the animal moves its paw), otherwise described as thermal threshold or latency, determines the animal's hind paw sensitivity to heat.
Rats received oral administration of 0.1 mg/kg VR1 antagonist ([2-(2,6-dimethyl-morpholin-4-ylmethyl)-7-(3-trifluoromethyl-pyridin-2-yl)-pyrido[3,2-d]pyrimidin-4-yl]-(4-trifluoromethyl-phenyl)-amine (cis)) or vehicle alone in a solution of 2% vitamin E (d-alpha tocopheryl polyethylene glycol 1000 succinate) in distilled water. One hour later, 100 μL of 1% carrageenan was injected in the intraplantar aspect of the left paw. 2 hours after carrageenan injection, the rats were treated subcutaneously with saline or 1 mg/kg of morphine sulfate in saline. One hour after subcutaneous treatment, each rat's thermal withdrawal latency (i.e., the amount of time that heat is applied before the animal moves its paw) was determined. This latency was compared with the latency determined for each rat on the day prior to the experiment (baseline day).
The data are presented in FIG. 4, expressed as a decrease in paw withdrawal latency (latency on test day—latency on baseline day).

rats [2] = assay: CFA-induced chronic inflammatory pain, mechanical allodynia (von Frey), tolerance to morphine; assay type: in vivo, rat; conditions: once per day for four days; for withdrawal threshold from a von Frey filament: Treatment Day 4, 1 hour after treatment, ANOVA and Fisher's PLSD
Text: A positive allodynic response consists of lifting the affected paw followed immediately by licking or shaking of the paw.

[3] = oral VR1 antagonist 0.3 mg/kg and subcutaneous morphine sulfate 3 mg/kg

SMILES	decrease in thermal paw withdrawal latency (carrageenan-induced thermal hyperalgesia) (rats [1]; VR1 antagonist alone, 0.1 mg/kg oral, with s.c. saline, ANOVA, Fisher's PLSD)	decrease in thermal paw withdrawal latency (carrageenan-induced thermal hyperalgesia) (rats [1]; coadministration of 1 mg/kg morphine s.c. with VR1 antagonist 0.1 mg/kg oral)	tolerance to repeated morphine dosing (rats [2]; [3])	withdrawal threshold from a von Frey filament (rats [2]; [3])	decrease in thermal paw withdrawal latency (carrageenan-induced thermal hyperalgesia) (rats [1]; 1 mg/kg morphine s.c. with oral vehicle, 1 hour after subcutaneous treatment, ANOVA, Fisher's PLSD)	withdrawal threshold from a von Frey filament (rats [2]; oral vehicle and subcutaneous morphine sulfate 3 mg/kg)
C[C@@H]1CN(Cc2nc(Nc3ccc(C(F)(F)F)cc3)c3ncc(-c4ncccc4C(F)(F)F)cc3n2)C[C@H](C)O1 [VR1 antagonist, [2-(2,6-dimethyl-morpholin-4-ylmethyl)-7-(3-trifluoromethyl-pyridin-2-yl)-pyrido[3,2-d]pyrimidin-4-yl]-(4-trifluoromethyl-phenyl)-amine (cis)]	statistically significant effect	greatest effect	prevents tolerance to repeated morphine dosing	statistically significantly higher withdrawal thresholds than any other treatment group	–	–
CN1CC[C@]23c4c5ccc(O)c4O[C@H]2[C@@H](O)C=C[C@H]3[C@H]1C5 [morphine, reference compound]	–	–	–	–	ineffective in reversing carrageenan-induced thermal hyperalgesia	not significantly different from oral vehicle and subcutaneous vehicle controls
